{
  "source": "paper PMC3429353",
  "about": "(Bioorganic & medicinal chemistry, 2012)",
  "key": {"[1]": {"system": "M. tuberculosis, M. smegmatis, C. albicans, E. coli, and A. baumanii", "assay": "Antimicrobial activity against a panel of microorganisms", "format": "cell-based"}, "[2]": {"system": "HT-29, MCF-7, NCI-H460, SF268, and IMR90 cells", "assay": "Cytotoxicity against the panel of cell lines", "format": "cell-based, Human"}, "[3]": {"system": "Vero cells", "assay": "Vero cell cytotoxicity"}, "[4]": {"system": "IMR90 cells", "assay": "Cytotoxicity against IMR90 cells", "format": "cell-based, Human"}, "[5]": {"system": "Candida albicans", "assay": "Antimicrobial activity", "format": "cell-based"}, "[6]": {"system": "Escherichia coli", "assay": "Antimicrobial activity", "format": "cell-based"}, "[7]": {"system": "Mycobacterium tuberculosis"}, "[8]": {"system": "Staphylococcus aureus", "assay": "Antimicrobial activity", "format": "cell-based"}, "[9]": {"system": "Acinetobacter baumannii", "assay": "Antimicrobial activity", "format": "cell-based"}, "[10]": {"system": "Mycobacterium smegmatis", "assay": "Antimicrobial activity", "format": "cell-based"}},
  "note": "pIC50: −log10 of the molar value.",
  "data": [
    {"compound": "C=C[C@]1(C)CC2C(=O)c3c(NC=O)cccc3C(C)(C)[C@H]2C[C@H]1O", "note": "(relative stereo) [13-hydroxy dechlorofontonamide (3), 13-hydroxy dechlorofontonamide]", "values": [
      {"measurement": "antimicrobial activity (in words)", "setting": "[1]", "value": "no antimicrobial activity"},
      {"measurement": "cytotoxicity (in words)", "setting": "[2]; all cell lines tested (HT-29, MCF-7, NCI-H460, SF268, IMR90)", "value": "inactive"}
    ]},
    {"compound": "[C-]#[N+]C1=C2c3c[nH]c4cccc(c34)C(C)(C)[C@H]2CC[C@]1(C)C=C", "note": "[Deschloro hapalindole I (2), deschloro hapalindole I]", "values": [
      {"measurement": "antimicrobial activity (in words)", "setting": "[1]", "value": "no antimicrobial activity"}
    ]},
    {"compound": "[C-]#[N+][C@@H]1[C@H]2c3c[nH]c4cccc(c34)C(C)(C)[C@@H]2CC[C@]1(C)C=C", "note": "[Hapalindole H]", "values": [
      {"measurement": "pIC50", "setting": "[2]; Homo sapiens, read-out: IC50 values (range over cell lines)", "value": "4.50 to 5.07"}
    ]},
    {"compound": "[C-]#[N+]C1=C2c3c[nH]c4cccc(c34)C(C)(C)[C@H]2C[C@@H](Cl)[C@]1(C)C=C", "note": "[Hapalindole I]", "values": [
      {"measurement": "cytotoxicity against Vero cells (in words)", "setting": "[3]", "value": "no detectable cytotoxicity"}
    ]},
    {"compound": "[C-]#[N+][C@H]1C(=C)[C@@H](C=C)C[C@@H]2[C@@H]1c1c[nH]c3cccc(c13)C2(C)C", "note": "[Hapalindole X (1), hapalindole X]", "values": [
      {"measurement": "cytotoxicity (in words)", "setting": "[2]; all four cancer cells (HT-29, MCF-7, NCI-H460, SF268)", "value": "moderate cytotoxicity"},
      {"measurement": "cytotoxicity (in words)", "setting": "[4]", "value": "relatively low cytotoxicity"}
    ]},
    {"compound": "[C-]#[N+][C@@H]1[C@H]2C(=O)c3c(NC=O)cccc3C(C)(C)[C@@H]2CC[C@]1(C)C=C", "note": "[Hapalonamide H]", "values": [
      {"measurement": "MIC C. albicans", "setting": "[5]", "value": "< 0.6", "unit": "µM"},
      {"measurement": "MIC E. coli", "setting": "[6]", "value": "> 100", "unit": "µM"},
      {"measurement": "MIC M. tuberculosis", "setting": "[7]", "value": 1.2, "unit": "µM"},
      {"measurement": "MIC S. aureus", "setting": "[8]", "value": "> 100", "unit": "µM"},
      {"measurement": "MIC A. baumanii", "setting": "[9]", "value": "> 100", "unit": "µM"},
      {"measurement": "MIC M. smegmatis", "setting": "[10]", "value": 34.3, "unit": "µM"},
      {"measurement": "pIC50", "setting": "[3]; read-out: IC50 Vero, Vero cell toxicity", "value": 4.87}
    ]},
    {"compound": "Gentamycin [reference compound]", "values": [
      {"measurement": "MIC E. coli", "setting": "[6]", "value": 2.3, "unit": "µM"}
    ]}
  ]
}
